Drawing on ChEMBL document CHEMBL1135677 (J Med Chem, 2002), this text covers IC50 and k2 for seven compounds.

In data set [1] the test system is LXFL 529. The data set can be described thus: Antiproliferative activity assessed in the LXFL529 human lung carcinoma using the BrdU. The format is functional, cell-based.
Data set [2] can be described thus: Antiproliferative activity assessed in the RENCA murine renal cell carcinoma using the BrdU. Format: functional, cell-based, Mus musculus.
The subject of data set [3] is MCF7. The experiment in a line: Antiproliferative activity assessed in the MCF-7 human mamma carcinoma using the BrdU. Format: functional, cell-based.
Data set [4] concerns the target T1, Albumin (Homo sapiens, UniProt P02768). The data set can be described thus: Second order rate constant after incubation with human serum albumin (HSA) at pH 7.4 in the absence of myristic acid.
Data set [5] has as its target T1, Albumin. The experiment in a line: Second order rate constant after incubation with human serum albumin (HSA) at pH 7.4 in the presence of 5 equiv of myristic acid.

pIC50: −log10 of the molar value.

T1 sequence (P02768 whole entry): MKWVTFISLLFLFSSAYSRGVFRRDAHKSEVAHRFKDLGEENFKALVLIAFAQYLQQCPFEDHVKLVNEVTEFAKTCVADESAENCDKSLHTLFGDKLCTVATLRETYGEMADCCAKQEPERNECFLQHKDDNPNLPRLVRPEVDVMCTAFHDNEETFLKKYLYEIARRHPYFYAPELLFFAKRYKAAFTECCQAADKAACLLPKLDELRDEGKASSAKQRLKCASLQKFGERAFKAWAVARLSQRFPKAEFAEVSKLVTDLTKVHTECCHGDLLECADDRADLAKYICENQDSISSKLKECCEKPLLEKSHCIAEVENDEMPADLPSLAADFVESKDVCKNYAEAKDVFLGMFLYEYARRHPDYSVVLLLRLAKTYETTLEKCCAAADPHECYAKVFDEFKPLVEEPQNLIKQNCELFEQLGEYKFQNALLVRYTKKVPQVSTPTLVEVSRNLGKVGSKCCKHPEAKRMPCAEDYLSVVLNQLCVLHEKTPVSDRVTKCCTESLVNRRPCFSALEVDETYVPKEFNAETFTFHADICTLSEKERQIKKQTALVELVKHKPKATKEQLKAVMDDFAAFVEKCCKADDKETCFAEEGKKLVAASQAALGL

With `COc1cccc2c1C(=O)c1c(O)c3c(c(O)c1C2=O)C[C@@](O)(/C(CO)=N/NC(=O)CCCCCN1C(=O)CCC1=O)C[C@]3(C)COC1C[C@H](N)[C@](C)(O)[C@H](C)O1` (some centres undefined), the negative logarithm of the IC50 (pIC50) was 6.30 in data set [1] (Homo sapiens, LXFL 529); 6.15 in data set [2] (Mus musculus); 5.96 in data set [3] (Homo sapiens, MCF7).
Turning to `COc1cccc2c1C(=O)c1c(O)c3c(c(O)c1C2=O)C[C@@](O)(/C(CO)=N/NC(=O)CCCN1C(=O)C=CC1=O)C[C@]3(C)COC1C[C@H](N)[C@](C)(O)[C@H](C)O1.Cl` (some centres undefined), the k2 in data set [4] stood at 25.17 M⁻¹ s⁻¹; in data set [5], 19 M⁻¹ s⁻¹.
Regarding `COc1cccc2c1C(=O)c1c(O)c3c(c(O)c1C2=O)C[C@@](O)(/C(CO)=N/NC(=O)CCCCCCCN1C(=O)C=CC1=O)C[C@]3(C)COC1C[C@H](N)[C@](C)(O)[C@H](C)O1.Cl` (some centres undefined), the k2 is 10 M⁻¹ s⁻¹ in data set [4] and 16 M⁻¹ s⁻¹ in data set [5].
In the case of `COc1cccc2c1C(=O)c1c(O)c3c(c(O)c1C2=O)C[C@@](O)(/C(CO)=N/NC(=O)CCN1C(=O)C=CC1=O)C[C@]3(C)COC1C[C@H](N)[C@](C)(O)[C@H](C)O1.Cl` (some centres undefined), the values for the k2 in data set [4] and in data set [5] were 23.83 M⁻¹ s⁻¹ and 17.83 M⁻¹ s⁻¹, respectively.
With `COc1cccc2c1C(=O)c1c(O)c3c(c(O)c1C2=O)C[C@@](O)(/C(CO)=N/NC(=O)CCCCCN1C(=O)C=CC1=O)C[C@]3(C)COC1C[C@H](N)[C@](C)(O)[C@H](C)O1` (stereo in doubt), the pIC50 in data set [1] (Homo sapiens, LXFL 529) was 6.40; in data set [2] (Mus musculus) it was 6.05; in data set [3] (Homo sapiens, MCF7), 6.00.
Take `COc1cccc2c1C(=O)c1c(O)c3c(c(O)c1C2=O)C[C@@](O)(/C(CO)=N/NC(=O)CCCCCN1C(=O)C=CC1=O)C[C@]3(C)COC1C[C@H](N)[C@](C)(O)[C@H](C)O1.Cl` (stereo in doubt; 3): the pIC50 was 6.30 in data set [1] (lxfl 529), 6.00 in data set [2] and 5.96 in data set [3] (mcf7). The k2 is 17.33 M⁻¹ s⁻¹ in data set [4] and 37.5 M⁻¹ s⁻¹ in data set [5].
`COc1cccc2c1C(=O)c1c(O)c3c(c(O)c1C2=O)C[C@@](O)(C(=O)CO)C[C@@H]3O[C@H]1C[C@H](N)[C@H](O)[C@H](C)O1` [DOXORUBICIN]: the negative-log IC50 (pIC50) in data set [1] (Homo sapiens, LXFL 529) is 7.40; in data set [3] (Homo sapiens, MCF7) it was 7.40.
